Laboratory results taken from patent publication US9833520B2, “Labeled, non-peptidic, multivalent integrin antagonist compounds; methods for synthesis and uses thereof” (The Methodist Hospital Research Institute, priority 2011, dated 2017).
“Also recorded” adds a separate entry of the source.

Columns and labels:
U-87 xenograft tumors = assay: In vivo and ex vivo NIR fluorescence imaging of U-87 xenograft tumor-bearing mice; conditions: co-administered with 10 nmol bivalent-IA-Cy5.5; 2, 4, 7, 24, 48 hrs
Protocol: U-87 MG Xenograft Model, Animal procedures were performed according to approved protocols. Female athymic nude mice (nu/nu), obtained from Charles River Laboratories, Inc. (Cambridge, Mass., USA) at 4-6 weeks of age, were injected subcutaneously in the right rear thigh with 1×10^7 U-87 MG cells suspended in 100 μL of phosphate-buffered saline (PBS). The cancer cells were harvested from sub-confluent cultures with 0.25% trypsin. Trypsinization was stopped with DMEM containing 10% FBS, after which the cells were washed once in serum-free medium and resuspended in PBS. Trypan blue exclusion was performed to ensure >90% cell viability. The tumor bearing mice were subjected to in vivo imaging studies when the tumors reached 0.4-0.6 cm in diameter.
In vivo Fluorescence Imaging of Tumors. ˜3×10^6 U-87 cells were implanted bilaterally in the posterior flanks of immunocompromised (nu/nu) mice and grown to ˜4 to 6 mm in diameter. Imaging was carried out in groups of five mice. After palpable masses were detected, animals were manually restrained and imaging probes were intravenously administered (lateral tail vein) using a 30-Ga needle via aseptic technique. Free Cy5.5 was prepared by dissolving the same Cy5.5NHS ester used for labeling the bivalent IA (GE Healthcare, Piscatway, N.J., USA) in phosphate buffered saline (PBS), pH 7.4 overnight at 4° C. Stock concentration of free Cy5.5 was measured optically using the molar extinction coefficient of 250000M-1 cm-1 using a UV-visible spectrophotometer at the maximum absorbance wavelength (675 nm) as recommended by the manufacturer. The bivalent-IA-Cy5.5 was weighed and confirmed by spectrophotometric measurement. Appropriate dilutions of each probe were made in PBS, pH 7.4, and each was filter sterilized (0.2-μm) immediately prior to use. All animals weighed between 18 and 20 g, and each received 10 nmol of imaging probe (in a total volume of 100 μL). Fluorescence imaging was performed with a small animal-dedicated optical imaging system (Xenogen/Caliper IVIS-200, Mountain View, Calif., USA) under continuous 1.5-2.0% isoflurane delivered through the integrated anesthesia nosecone system. At 2-, 4-, 7-, 24-, and 48-hrs' post-injection, images were acquired with the surface of the tissue of interest (tumor) approximating a perpendicular viewing angle relative to the camera line of sight; this viewing angle was also used for normal tissue selection.
For determining tumor contrast, mean fluorescence intensities of the tumor area (T) defined as radiance (photons/sec/cm2/sr) at the right rear leg of the animal and of the area (N) at the right flank (normal tissue) were calculated by region-of-interest (ROI) analysis using the corresponding photograph of each image acquisition dataset to identify the tumor region. Pre-injection imaging was also performed to determine baseline autofluorescence. For competitive inhibition studies, mice (n=3) were co-injected with 500 nmol bivalent IA and 10 nmol of imaging probe (bivalent-IA-Cy5.5) following the same procedure described above. Free Cy5.5 studies were performed in the same manner following the intravenous injection of 10 nmol. For ex vivo biodistribution imaging, two tumor-bearing mice were imaged 24 hrs post injection of bivalent-IA-Cy5.5 and thereafter euthanized per IACUC protocol (CO2 and cervical dislocation). Tumor and major internal organs (heart, lung, liver, spleen, gastrointestinal tract, and kidneys) were harvested, weighed, and imaged against a black paper background. All image acquisition parameters were as follows: epi-illumination; Cy5.5 Em/Ex; Bin: (HR)4, FOV: 12.9; f2; 0.2 sec.

HUVECs = assay: In vitro cytotoxicity (MTT) assay, HUVECs; type: cell-based, human; conditions: 1 μg/mL to 100 μg/mL, 24 hr
Protocol: For cell cytotoxicity assay, the cells were then seeded into 96-well flat-bottomed tissue-culture plates at 1×10^4 cells/well and incubated for 24 hr in humidified atmosphere of 5% (vol./vol.) CO2 at 37° C. in the presence of each compound. The multivalent compound (monomer, dimer, and trimer) sample solutions were diluted with culture medium (1% FBS added) to obtain concentrations in the range of 0.1-100 μg/mL for each compound. The cytotoxic effects of monomer, dimer and trimer compounds were evaluated by adding 100 μL of each sample in 100 μL culture medium to each well. After 24-hrs' incubation, cell viability was evaluated by mitochondrial conversion of 3-(4,5-dimethylthiazol-2-yl)-2,5-diphenyl tetrazolium bromide (MTT assay) (Allison et al., 1985).

| Structure (SMILES) | competitive inhibition of bivalent-IA-Cy5.5 tumor fluorescence signal (U-87 xenograft tumors) | cytotoxicity on HUVEC cells (HUVECs) |
| --- | --- | --- |
| NC(CCCCCC(=O)NCCS(=O)(=O)N[C@@H](CNC(=O)c1ccc(OCCNC2=NCCCN2)cc1)C(=O)O)C(=O)NCCS(=O)(=O)N[C@@H](CNC(=O)c1ccc(OCCNC2=NCCCN2)cc1)C(=O)O (some centres unmarked) [bivalent IA] | Significant blocking of tumor fluorescence signal; also recorded: reduced at all timepoints measured | – |
| O=C(NCCS(=O)(=O)N[C@@H](CNC(=O)c1ccc(OCCNC2=NCCCN2)cc1)C(=O)O)OCCN(CCOC(=O)NCCS(=O)(=O)N[C@@H](CNC(=O)c1ccc(OCCNC2=NCCCN2)cc1)C(=O)O)CCOC(=O)NCCS(=O)(=O)N[C@@H](CNC(=O)c1ccc(OCCNC2=NCCCN2)cc1)C(=O)O [IA trimer] | – | increased cytotoxicity over the IA-monomer and dimer |
